According to the supplement of paper PMC11451515:

System: P12-Ichikawa
Test: cell viability relative to DMSO control; higher = less cytotoxic
Details: 48 h
Method in brief: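 Cells were incubated for 48 h at 37°C before CellTiter-Glo One luminescence was read. The cells were NOMO1 or SEM (500 cells/well) or P12-Ichikawa (1000 cells/well) leukemia cells, adapted for at least four passages in each medium and seeded in 1536-well plates (5 μl). Dosing used library compounds in DMSO applied by pin over 11 threefold points, 47 μM to 0.79 nM. Viability is the per-plate percentage of DMSO wells, with cell-free wells as background.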

[1] = HPLM + 10% dialyzed FBS, 0.000781 µM
[2] = HPLM + 10% dialyzed FBS, 0.00234 µM
[3] = HPLM + 10% dialyzed FBS, 0.00702 µM
[4] = HPLM + 10% dialyzed FBS, 0.0211 µM
[5] = HPLM + 10% dialyzed FBS, 0.0632 µM
[6] = HPLM + 10% dialyzed FBS, 0.19 µM
[7] = HPLM + 10% dialyzed FBS, 0.569 µM
[8] = HPLM + 10% dialyzed FBS, 1.71 µM
[9] = HPLM + 10% dialyzed FBS, 5.12 µM
[10] = HPLM + 10% dialyzed FBS, 15.4 µM
[11] = HPLM + 10% dialyzed FBS, 46.1 µM
[12] = RPMI 5 mM glucose + 10% FBS, 0.000781 µM
[13] = RPMI 5 mM glucose + 10% FBS, 0.00234 µM
[14] = RPMI 5 mM glucose + 10% FBS, 0.00702 µM
[15] = RPMI 5 mM glucose + 10% FBS, 0.0211 µM
[16] = RPMI 5 mM glucose + 10% FBS, 0.0632 µM
[17] = RPMI 5 mM glucose + 10% FBS, 0.19 µM
[18] = RPMI 5 mM glucose + 10% FBS, 0.569 µM
[19] = RPMI 5 mM glucose + 10% FBS, 1.71 µM
[20] = RPMI 5 mM glucose + 10% FBS, 5.12 µM
[21] = RPMI 5 mM glucose + 10% FBS, 15.4 µM
[22] = RPMI 5 mM glucose + 10% FBS, 46.1 µM
[23] = RPMI 5 mM glucose + 10% dialyzed FBS, 0.000781 µM
[24] = RPMI 5 mM glucose + 10% dialyzed FBS, 0.00234 µM
[25] = RPMI 5 mM glucose + 10% dialyzed FBS, 0.00702 µM
[26] = RPMI 5 mM glucose + 10% dialyzed FBS, 0.0211 µM
[27] = RPMI 5 mM glucose + 10% dialyzed FBS, 0.0632 µM
[28] = RPMI 5 mM glucose + 10% dialyzed FBS, 0.19 µM
[29] = RPMI 5 mM glucose + 10% dialyzed FBS, 0.569 µM
[30] = RPMI 5 mM glucose + 10% dialyzed FBS, 1.71 µM
[31] = RPMI 5 mM glucose + 10% dialyzed FBS, 5.12 µM
[32] = RPMI 5 mM glucose + 10% dialyzed FBS, 15.4 µM
[33] = RPMI 5 mM glucose + 10% dialyzed FBS, 46.1 µM

CN[C@@H]1[C@H](O)[C@H](NC)[C@H]2O[C@@]3(O)C(=O)C[C@@H](C)O[C@H]3O[C@@H]2[C@H]1O
cell viability [1]: 118% | cell viability [2]: 117% | cell viability [3]: 124% | cell viability [4]: 115% | cell viability [5]: 118% | cell viability [6]: 116% | cell viability [7]: 114% | cell viability [8]: 111% | cell viability [9]: 114% | cell viability [10]: 101% | cell viability [11]: 98.4% | cell viability [12]: 109% | cell viability [13]: 117% | cell viability [14]: 126% | cell viability [15]: 120% | cell viability [16]: 117% | cell viability [17]: 113% | cell viability [18]: 105% | cell viability [19]: 106% | cell viability [20]: 106% | cell viability [21]: 105% | cell viability [22]: 97.5% | cell viability [23]: 122% | cell viability [24]: 121% | cell viability [25]: 115% | cell viability [26]: 116% | cell viability [27]: 106% | cell viability [28]: 116% | cell viability [29]: 117% | cell viability [30]: 106% | cell viability [31]: 114% | cell viability [32]: 107% | cell viability [33]: 101%

CC(C)CC(=O)N[C@H](C(=O)N[C@H](C(=O)N[C@@H](CC(C)C)[C@@H](O)CC(=O)N[C@@H](C)C(=O)N[C@@H](CC(C)C)[C@@H](O)CC(=O)O)C(C)C)C(C)C
cell viability [1]: 103% | cell viability [2]: 103% | cell viability [3]: 107% | cell viability [4]: 108% | cell viability [5]: 105% | cell viability [6]: 114% | cell viability [7]: 118% | cell viability [8]: 116% | cell viability [9]: 105% | cell viability [10]: 111% | cell viability [11]: 97.9% | cell viability [12]: 108% | cell viability [13]: 109% | cell viability [14]: 121% | cell viability [15]: 109% | cell viability [16]: 97.6% | cell viability [17]: 113% | cell viability [18]: 105% | cell viability [19]: 113% | cell viability [20]: 122% | cell viability [21]: 103% | cell viability [22]: 108% | cell viability [23]: 98.1% | cell viability [24]: 99.7% | cell viability [25]: 106% | cell viability [26]: 102% | cell viability [27]: 96.6% | cell viability [28]: 103% | cell viability [29]: 107% | cell viability [30]: 111% | cell viability [31]: 102% | cell viability [32]: 97.6% | cell viability [33]: 96%

O=C1c2c(O)ccc(O)c2C(=O)c2c(NCCNCCO)ccc(NCCNCCO)c21
cell viability [1]: 101% | cell viability [2]: 105% | cell viability [3]: 108% | cell viability [4]: 110% | cell viability [5]: 104% | cell viability [6]: 99.7% | cell viability [7]: 6.68% | cell viability [8]: 36.9% | cell viability [9]: 8.95% | cell viability [10]: 7% | cell viability [11]: 5.91% | cell viability [12]: 96% | cell viability [13]: 101% | cell viability [14]: 96.7% | cell viability [15]: 124% | cell viability [16]: 107% | cell viability [17]: 94.3% | cell viability [18]: 4.89% | cell viability [19]: 32.4% | cell viability [20]: 5.93% | cell viability [21]: 5.48% | cell viability [22]: 5.03% | cell viability [23]: 97.5% | cell viability [24]: 96% | cell viability [25]: 98% | cell viability [26]: 106% | cell viability [27]: 106% | cell viability [28]: 102% | cell viability [29]: 8.07% | cell viability [30]: 45.4% | cell viability [31]: 9.1% | cell viability [32]: 7.62% | cell viability [33]: 9.05%

Cn1cnc2c1c(=O)[nH]c(=O)n2C
cell viability [1]: 105% | cell viability [2]: 107% | cell viability [3]: 100% | cell viability [4]: 104% | cell viability [5]: 110% | cell viability [6]: 105% | cell viability [7]: 112% | cell viability [8]: 108% | cell viability [9]: 97.1% | cell viability [10]: 98% | cell viability [11]: 9.4% | cell viability [12]: 104% | cell viability [13]: 104% | cell viability [14]: 93.9% | cell viability [15]: 97.6% | cell viability [16]: 103% | cell viability [17]: 103% | cell viability [18]: 100% | cell viability [19]: 98.5% | cell viability [20]: 99% | cell viability [21]: 82.2% | cell viability [22]: 34.1% | cell viability [23]: 102% | cell viability [24]: 102% | cell viability [25]: 103% | cell viability [26]: 102% | cell viability [27]: 100% | cell viability [28]: 99.8% | cell viability [29]: 103% | cell viability [30]: 97.9% | cell viability [31]: 87.2% | cell viability [32]: 80.9% | cell viability [33]: 25.7%

Nc1ncnc2c1c(-c1cnc3[nH]ccc3c1)nn2C1CCCC1
cell viability [1]: 117% | cell viability [2]: 121% | cell viability [3]: 112% | cell viability [4]: 111% | cell viability [5]: 103% | cell viability [6]: 106% | cell viability [7]: 95.7% | cell viability [8]: 81.3% | cell viability [9]: 71.2% | cell viability [10]: 52.2% | cell viability [11]: 28.7% | cell viability [12]: 122% | cell viability [13]: 118% | cell viability [14]: 122% | cell viability [15]: 117% | cell viability [16]: 106% | cell viability [17]: 96.5% | cell viability [18]: 90.1% | cell viability [19]: 63.5% | cell viability [20]: 53.7% | cell viability [21]: 40.3% | cell viability [22]: 26.2%

C\C1=C(\C=C(C#N)/C(=O)N1)C2=C[N]3C=CN=C3C=C2
cell viability [1]: 88.1% | cell viability [2]: 82.3% | cell viability [3]: 87.3% | cell viability [4]: 89.8% | cell viability [5]: 87.1% | cell viability [6]: 84.6% | cell viability [7]: 89.9% | cell viability [8]: 88.5% | cell viability [9]: 85.1% | cell viability [10]: 91.5% | cell viability [11]: 92.5% | cell viability [12]: 88.8% | cell viability [13]: 80.1% | cell viability [14]: 82.9% | cell viability [15]: 88% | cell viability [16]: 79.3% | cell viability [17]: 79.2% | cell viability [18]: 80% | cell viability [19]: 81.7% | cell viability [20]: 86.6% | cell viability [21]: 80.5% | cell viability [22]: 84.7% | cell viability [23]: 81.7% | cell viability [24]: 72.9% | cell viability [25]: 78.3% | cell viability [26]: 78.7% | cell viability [27]: 81.5% | cell viability [28]: 78.8% | cell viability [29]: 80.7% | cell viability [30]: 78.3% | cell viability [31]: 80.4% | cell viability [32]: 74.9% | cell viability [33]: 77.9%

CC[C@H](C)[N]1C=C(C)C2=C1C=C(C=C2C(=O)NC\C3=C(C)\C=C(\C)NC3=O)C4=CC=C(N=C4)N5CCNCC5
cell viability [1]: 109% | cell viability [2]: 116% | cell viability [3]: 114% | cell viability [4]: 115% | cell viability [5]: 115% | cell viability [6]: 122% | cell viability [7]: 116% | cell viability [8]: 117% | cell viability [9]: 114% | cell viability [10]: 118% | cell viability [11]: 109% | cell viability [12]: 104% | cell viability [13]: 116% | cell viability [14]: 117% | cell viability [15]: 118% | cell viability [16]: 117% | cell viability [17]: 113% | cell viability [18]: 126% | cell viability [19]: 129% | cell viability [20]: 117% | cell viability [21]: 125% | cell viability [22]: 106% | cell viability [23]: 103% | cell viability [24]: 107% | cell viability [25]: 108% | cell viability [26]: 113% | cell viability [27]: 115% | cell viability [28]: 114% | cell viability [29]: 116% | cell viability [30]: 132% | cell viability [31]: 115% | cell viability [32]: 108% | cell viability [33]: 93.1%

N[C@H](CSC(c1ccccc1)(c1ccccc1)c1ccccc1)C(=O)O
cell viability [1]: 107% | cell viability [2]: 112% | cell viability [3]: 121% | cell viability [4]: 129% | cell viability [5]: 108% | cell viability [6]: 114% | cell viability [7]: 117% | cell viability [8]: 120% | cell viability [9]: 115% | cell viability [10]: 114% | cell viability [11]: 108% | cell viability [12]: 97.6% | cell viability [13]: 112% | cell viability [14]: 115% | cell viability [15]: 124% | cell viability [16]: 116% | cell viability [17]: 122% | cell viability [18]: 120% | cell viability [19]: 119% | cell viability [20]: 125% | cell viability [21]: 124% | cell viability [22]: 131% | cell viability [23]: 90.9% | cell viability [24]: 116% | cell viability [25]: 122% | cell viability [26]: 116% | cell viability [27]: 118% | cell viability [28]: 112% | cell viability [29]: 115% | cell viability [30]: 121% | cell viability [31]: 127% | cell viability [32]: 121% | cell viability [33]: 116%
